In PMC9505023, “Isatin Bis-Indole and Bis-Imidazothiazole Hybrids: Synthesis and Antimicrobial Activity” (Molecules, 2022):
“And” between values parts separate entries of the source, which are not always exact repeats. Equal entries are not always repeated.

Tests used:
[1] = test system: Staphylococcus aureus ATCC 25923; assay: Microdilution broth susceptibility test, S. aureus reference strain; settings: for activity at 100 µM: read-out: S. aureus microbial growth
Procedure: The in vitro antimicrobial activity of the isatin derivatives was evaluated by a microdilution broth method in accordance with the guidelines provided by a number of international committees, such as The Clinical Laboratory Standards Institute (CLSI) in the U.S. or The European Committee on Antimicrobial Susceptibility Testing (EUCAST) in Europe reference bacterial strains, including Staphylococcus aureus (ATCC 25923) and Escherichia coli (ATCC 25922) and Candida albicans (ATCC 10231), were purchased from the American Type Culture Collection (ATCC); they were routinely cultured in 5% sheep blood agar plate and in Sabauraud dextrose agar, respectively, at 37 °C. Clinical isolates, identified by MALDI-TOF MS (Bruker Daltonik, GmbH, Bremen, Germany), were profiled for their antibiotic susceptibility by using the Vitek2 semiautomated system (bioMerieux, Craponne, France) and according to EUCAST guidelines [EUCAST: The European Committee on Antimicrobial Susceptibility Testing. Breakpoint tables for interpretation of MICs and zone diameters. Version 12, 2022, http://www.eucast.org (accessed on 1 January 2022)].
Microbial inocula were prepared at 0.5 McFarland in PBS and, subsequently, bacterial suspensions were diluted 1:200 in Mueller–Hinton broth (Sigma-Aldrich, St. Louis, MO, USA), while fungal inoculum was diluted 1:20 in RPMI-1640 medium (Gibco®, ThermoFisher Scientific Inc., Waltham, MA, USA), containing glucose 2%, 0.3% levo-glutamine buffered to pH 7.0 with 0.165 M 3-(N-morpholino)propanesulfonic acid (MOPS). A total of 100 µL of these microbial suspensions were introduced in a 96-well microplate and treated with 100 µL of the compound at 100 µM or with two-fold serial dilutions of the compound in the range of 400 µM–3.12 µM. All compounds were previously dissolved in 100% DMSO at a concentration of 20 mM. Experiments included controls used to measure the microbial growth in regular medium (positive control) and to check the background turbidity of the reagents and the sterility of the procedures (negative controls). In addition, microbial growths were assessed in the presence of the DMSO solvent in the range of 0.015–2%. The inoculated plate was incubated at 37 °C for 24 h, and subsequently, the optical density at 630 nm was measured by the Multiskan Ascent microplate reader (Thermo Fisher Scientific Inc., Waltham, MA, USA). […] All the experiments were performed on triplicate in at least two independent assays.

[2] = test system: Escherichia coli ATCC 25922; assay: Microdilution broth susceptibility test, E. coli reference strain; type: cell-based; settings: ATCC25922, 24 h, growth as percentage relative to positive growth control, mean ± SD, read-out: E. coli microbial growth
Description: (§1) Breakpoint tables for interpretation of MICs and zone diameters.

[3] = test system: Candida albicans ATCC 10231; assay: Microdilution broth susceptibility test, C. albicans reference strain; type: cell-based; settings: for activity at 100 µM: Candida albicans, ATCC10231, 24 h, growth as percentage relative to positive growth control, mean ± SD, read-out: C. albicans microbial growth
Description: as §1

Vero cells (ATCC CCL-81) = assay: Cytotoxicity test, WST8-based CCK-8 cell viability; parameters: species or system African green monkey; Vero cell proliferation: unit: %; settings: 100 µM; for Vero cell proliferation: 48 h, cell viability as percentage relative to untreated controls, mean ± SD
Procedure: African green monkey kidney cells (Vero ATCC CCL-81) obtained from ATCC were cultured in Eagle’s minimal essential medium (MEM) (Sigma-Aldrich, St. Louis, MO, USA), supplemented with 10% fetal bovine serum (FBS) (Carlo Erba Reagents, Milan, Italy), 100 U/mL penicillin, and 100 µg/mL streptomycin at 37 °C with 5% CO2. For the experiments, the cells were seeded into 96-well plates at 10^4 cells/well and incubated at 37 °C for 24 h. Following washes with PBS, the cell monolayer was incubated with 100 µL of medium containing 100 µM of the derivatives. Both untreated cells and cells incubated with the solvent were included in each experiment as controls. The cell viability was assessed by a WST8-based assay according to the manufacturer’s instructions (CCK-8, Cell Counting Kit-8, Dojindo Molecular Technologies, Rockville, MD, USA). After 48 h of incubation, the culture medium was removed from each well, the monolayer was washed with PBS, and 100 µL of fresh medium containing 10 µL of CCK-8 solution were added. Following 2 h at 37 °C, the absorbance was measured at 450/630 nm; data were calculated as the percentage of the cell viability relative to the untreated controls.

[4] = test system: S. aureus clinical isolates (MSSA and MRSA); assay: Microdilution broth susceptibility test, S. aureus clinical isolates; type: cell-based; settings: Staphylococcus aureus, 10 clinical isolates, read-out: IC50 against S. aureus clinical isolates (range over isolates)
Description: as §1

[5] = Staphylococcus aureus, ATCC25923, 24 h

SMILES | activity at 100 µM [1, 5] [%] | activity at 100 µM [2] [%] | activity at 100 µM [3] [%] | Vero cell proliferation (Vero cells (ATCC CCL-81)) | Cytotoxicity on Vero cells in words (Vero cells (ATCC CCL-81)) | Activity against S. aureus in words ([1]; 100 µM) | Efficacy at the highest tested concentration in words ([1]; 400 µM) | Selectivity of antibacterial activity versus cytotoxicity in words ([1]; S. aureus growth compared with Vero cytotoxicity at 100 µM) | IC50 ([1]; Staphylococcus aureus, ATCC25923, 24 h, read-out: IC50 against S. aureus) | IC50 [4] [µM] | Antifungal activity against C. albicans in words ([3]; 100 µM (48.93 µg/mL))
COc1ccc2c(c1)C(C1(C3CNc4ccc(OC)cc43)C(=O)Nc3cc(OC)c(OC)c(OC)c31)CN2 (stereo not shown) [5d, 4′,5,5′,5″,6′-pentamethoxy-[3,3′:3′,3″-terindolin]-2′-one] | 89.1 ± 7 | 117 ± 1.1 | 120 ± 2 | 54.3 ± 0.9 |  |  |  |  |  |  | 
COc1ccc(CN2C(=O)C(C3CNc4ccccc43)(C3CNc4ccccc43)c3cc(OC)ccc32)cc1 (stereo not shown) [4g, 5′-methoxy-1′-(4-methoxybenzyl)-[3,3′:3′,3″-terindolin]-2′-one] | 86.2 ± 5.7 | 100.3 ± 0.7 | 50.6 ± 6.6 | 107.9 ± 8.9 |  |  |  |  |  |  | 
O=C1Nc2cc(OC(F)(F)F)ccc2C1(C1CNc2ccccc21)C1CNc2ccccc21 (stereo not shown) [4l, 6′-(trifluoromethoxy)-[3,3′:3′,3″-terindolin]-2′-one] | 72 ± 2.2 | 103 ± 1.6 | 93.3 ± 2.1 | 8.9 ±0.4 |  |  |  |  |  |  | 
O=C1Nc2c(Cl)ccc(Cl)c2C1(C1CNc2ccccc21)C1CNc2ccccc21 (stereo not shown) [4f, 4′,7′-dichloro-[3,3′:3′,3″-terindolin]-2′-one] | 75.8 ± 1.8 | 96.9 ± 1.7 | 107 ± 4.2 | 9.8 ± 0.5 | affect Vero cells proliferation |  |  |  |  |  | 
COc1ccc(CN2C(=O)C(c3c(Cl)nc4sccn34)(c3c(Cl)nc4sccn34)c3cc(OC)ccc32)cc1 [6g, 3,3-bis(6-chloroimidazo[2,1-b]thiazol-5-yl)-5-methoxy-1-(4-methoxybenzyl)indolin-2-one] | 67.4 ± 8.4 | 73.6 ± 9.1 | 92.4 ± 3.6 | 84.3 ± 0.9 |  |  |  |  |  |  | 
COc1ccc2c(c1)C(c1c(Cl)nc3sccn13)(c1c(Cl)nc3sccn13)C(=O)N2 [6k, 3,3-bis(6-chloroimidazo[2,1-b]thiazol-5-yl)-5-methoxyindolin-2-one] | 43.4 ± 5.6 | 103 ± 2.4 | 104 ± 1.9 | 70.9 ± 5.6 |  | highly active | completely inhibit bacterial growth | selective inhibitory property against the Gram-positive strain | 39.1 µg/mL and 80 µM | 73 to 85.3 | 
O=C1Nc2cccc(I)c2C1(C1CNc2ccccc21)C1CNc2ccccc21 (stereo not shown) [4h, 4′-iodo-[3,3′:3′,3″-terindolin]-2′-one] | 72.8 ± 6.1 | 82 ± 1.5 | 23.2 ± 2.1 | 10.6 ± 0.3 | affect Vero cells proliferation |  |  |  |  |  | significantly reduced the growth of C. albicans
COc1ccc2c(c1)C(C1(C3CNc4ccc(OC)cc43)C(=O)N(Cc3ccc(Cl)cc3)c3ccccc31)CN2 (stereo not shown) [5m, 1′-(4-chlorobenzyl)-5,5″-dimethoxy-[3,3′:3′,3″-terindolin]-2′-one] | 95.1 ± 3.9 | 113 ± 0.6 | 88.2 ± 5.2 | 87.0 ± 5.7 |  |  |  |  |  |  | 
O=C1Nc2ccccc2C1(c1c(Cl)nc2sccn12)c1c(Cl)nc2sccn12 [6c, 3,3-bis(6-chloroimidazo[2,1-b]thiazol-5-yl)indolin-2-one] | 95.4 ± 2.4 | 117 ± 3.1 | 126 ± 2.1 | 92.8 ± 4.8 |  |  |  |  |  |  | 
Cc1cc(C)c2c(c1)NC(=O)C2(C1CNc2ccccc21)C1CNc2ccccc21 (stereo not shown) [4e, 4′,6′-dimethyl-[3,3′:3′,3″-terindolin]-2′-one] | 71.2 ± 8.7 | 103 ± 1.4 | 68.8 ± 2.7 | 8.5 ± 0.3 | affect Vero cells proliferation |  |  |  |  |  | 
